Assays:
Histone deacetylase 7 = target: T1, Histone deacetylase 7 (Homo sapiens, UniProt Q8WUI4); experiment: Inhibition of HDAC7 (unknown origin)
T1 sequence (Q8WUI4 whole entry): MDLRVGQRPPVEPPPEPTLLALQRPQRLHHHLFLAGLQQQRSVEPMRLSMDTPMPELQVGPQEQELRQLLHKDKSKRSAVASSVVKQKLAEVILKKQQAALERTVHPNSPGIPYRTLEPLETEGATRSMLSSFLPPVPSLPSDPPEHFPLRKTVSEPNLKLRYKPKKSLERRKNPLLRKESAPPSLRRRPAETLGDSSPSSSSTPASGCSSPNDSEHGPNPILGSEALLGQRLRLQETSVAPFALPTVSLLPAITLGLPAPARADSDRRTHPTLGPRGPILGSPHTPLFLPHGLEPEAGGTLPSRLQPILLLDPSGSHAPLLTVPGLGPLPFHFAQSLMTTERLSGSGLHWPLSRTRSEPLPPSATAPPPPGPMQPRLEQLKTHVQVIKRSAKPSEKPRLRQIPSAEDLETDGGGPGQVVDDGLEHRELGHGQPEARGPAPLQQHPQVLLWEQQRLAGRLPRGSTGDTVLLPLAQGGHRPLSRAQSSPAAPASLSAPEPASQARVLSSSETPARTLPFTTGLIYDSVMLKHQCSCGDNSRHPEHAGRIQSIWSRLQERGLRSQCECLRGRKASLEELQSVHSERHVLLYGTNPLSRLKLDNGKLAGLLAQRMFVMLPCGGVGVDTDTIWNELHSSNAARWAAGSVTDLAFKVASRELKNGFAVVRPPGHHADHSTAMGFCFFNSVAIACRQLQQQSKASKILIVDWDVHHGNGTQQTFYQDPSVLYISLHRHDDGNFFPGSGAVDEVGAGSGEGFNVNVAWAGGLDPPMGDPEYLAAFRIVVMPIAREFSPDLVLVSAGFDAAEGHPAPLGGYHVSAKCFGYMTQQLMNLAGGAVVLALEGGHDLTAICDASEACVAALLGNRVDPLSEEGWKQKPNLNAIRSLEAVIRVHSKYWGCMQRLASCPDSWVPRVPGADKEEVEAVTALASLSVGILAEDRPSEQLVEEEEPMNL

UACC-257 = experiment: Cytotoxicity against human UACC257 cells; format: functional
MDA-MB-231 [1] = experiment: Cytotoxicity against human MDA-MB-231 cells assessed as reduction of cell viability after 72 hrs by MTT assay; format: functional, cell-based; conditions: MDA-MB-231, 72 h
Histone deacetylase 1 = Histone deacetylase 1 (Homo sapiens, UniProt Q13547); experiment: Inhibition of HDAC1 (unknown origin)
Sequence of Histone deacetylase 1 (Q13547 whole entry): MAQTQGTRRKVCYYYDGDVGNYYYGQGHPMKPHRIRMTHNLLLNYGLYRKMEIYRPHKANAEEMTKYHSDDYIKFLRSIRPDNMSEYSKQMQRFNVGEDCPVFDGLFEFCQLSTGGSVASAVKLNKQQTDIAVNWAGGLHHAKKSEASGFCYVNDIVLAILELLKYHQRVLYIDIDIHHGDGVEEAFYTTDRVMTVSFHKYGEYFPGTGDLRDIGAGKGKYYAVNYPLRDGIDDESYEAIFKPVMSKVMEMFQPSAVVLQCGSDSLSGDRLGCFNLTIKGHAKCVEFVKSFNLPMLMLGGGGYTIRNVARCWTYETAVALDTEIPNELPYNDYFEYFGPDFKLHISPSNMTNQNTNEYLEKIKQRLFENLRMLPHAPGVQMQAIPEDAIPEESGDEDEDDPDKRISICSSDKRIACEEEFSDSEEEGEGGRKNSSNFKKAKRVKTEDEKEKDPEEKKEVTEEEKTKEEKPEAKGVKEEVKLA

HCT-15 = experiment: Cytotoxicity against human HCT15 cells; format: functional
MDA-MB-231 [2] = experiment: Cytotoxicity against human MDA-MB-231 cells; format: functional
HT-29 = experiment: Cytotoxicity against human HT-29 cells; format: functional
NCI-H226 = experiment: Cytotoxicity against human NCI-H226 cells; format: functional
SR = experiment: Cytotoxicity against human SR cells; format: functional
[3] = target: Platelet-derived growth factor receptor beta (Homo sapiens, UniProt P09619); experiment: Inhibition of PDGFRb (unknown origin); conditions: read-out: IC50
Sequence of Platelet-derived growth factor receptor beta (P09619 whole entry): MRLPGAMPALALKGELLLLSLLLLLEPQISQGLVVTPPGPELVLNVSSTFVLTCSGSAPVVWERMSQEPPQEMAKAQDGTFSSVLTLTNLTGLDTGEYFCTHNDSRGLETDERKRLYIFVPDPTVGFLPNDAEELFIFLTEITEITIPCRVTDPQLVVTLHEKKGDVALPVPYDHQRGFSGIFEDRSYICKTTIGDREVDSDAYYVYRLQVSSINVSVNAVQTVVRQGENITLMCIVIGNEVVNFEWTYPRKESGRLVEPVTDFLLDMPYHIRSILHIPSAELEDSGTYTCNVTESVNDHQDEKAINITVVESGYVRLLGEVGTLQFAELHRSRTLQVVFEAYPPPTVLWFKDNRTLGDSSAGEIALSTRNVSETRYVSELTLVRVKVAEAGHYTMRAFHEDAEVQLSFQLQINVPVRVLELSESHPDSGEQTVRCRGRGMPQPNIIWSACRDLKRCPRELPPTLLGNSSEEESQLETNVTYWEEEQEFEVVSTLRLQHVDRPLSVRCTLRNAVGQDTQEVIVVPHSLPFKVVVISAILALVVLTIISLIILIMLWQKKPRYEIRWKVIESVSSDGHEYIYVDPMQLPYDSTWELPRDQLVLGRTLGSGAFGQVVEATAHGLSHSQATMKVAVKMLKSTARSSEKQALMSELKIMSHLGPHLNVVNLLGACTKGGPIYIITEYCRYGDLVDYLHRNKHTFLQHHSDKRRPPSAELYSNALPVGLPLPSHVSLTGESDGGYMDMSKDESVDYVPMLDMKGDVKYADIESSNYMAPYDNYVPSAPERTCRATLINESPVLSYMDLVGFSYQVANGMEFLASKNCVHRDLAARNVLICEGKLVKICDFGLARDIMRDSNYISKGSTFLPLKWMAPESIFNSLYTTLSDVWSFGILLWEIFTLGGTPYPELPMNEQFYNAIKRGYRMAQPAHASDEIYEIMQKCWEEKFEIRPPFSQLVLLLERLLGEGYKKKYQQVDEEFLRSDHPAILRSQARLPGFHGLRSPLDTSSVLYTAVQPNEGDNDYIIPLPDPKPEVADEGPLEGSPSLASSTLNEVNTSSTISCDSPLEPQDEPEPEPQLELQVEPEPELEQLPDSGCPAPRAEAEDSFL

[4] = Cytotoxicity against human Hs 578T cells; format: functional
Histone deacetylase = format: cell-based, Homo sapiens; conditions: hela
Histone deacetylase 9 = Histone deacetylase 9 (Homo sapiens, UniProt Q9UKV0); experiment: Inhibition of HDAC9 (unknown origin)
Sequence of Histone deacetylase 9 (Q9UKV0 whole entry): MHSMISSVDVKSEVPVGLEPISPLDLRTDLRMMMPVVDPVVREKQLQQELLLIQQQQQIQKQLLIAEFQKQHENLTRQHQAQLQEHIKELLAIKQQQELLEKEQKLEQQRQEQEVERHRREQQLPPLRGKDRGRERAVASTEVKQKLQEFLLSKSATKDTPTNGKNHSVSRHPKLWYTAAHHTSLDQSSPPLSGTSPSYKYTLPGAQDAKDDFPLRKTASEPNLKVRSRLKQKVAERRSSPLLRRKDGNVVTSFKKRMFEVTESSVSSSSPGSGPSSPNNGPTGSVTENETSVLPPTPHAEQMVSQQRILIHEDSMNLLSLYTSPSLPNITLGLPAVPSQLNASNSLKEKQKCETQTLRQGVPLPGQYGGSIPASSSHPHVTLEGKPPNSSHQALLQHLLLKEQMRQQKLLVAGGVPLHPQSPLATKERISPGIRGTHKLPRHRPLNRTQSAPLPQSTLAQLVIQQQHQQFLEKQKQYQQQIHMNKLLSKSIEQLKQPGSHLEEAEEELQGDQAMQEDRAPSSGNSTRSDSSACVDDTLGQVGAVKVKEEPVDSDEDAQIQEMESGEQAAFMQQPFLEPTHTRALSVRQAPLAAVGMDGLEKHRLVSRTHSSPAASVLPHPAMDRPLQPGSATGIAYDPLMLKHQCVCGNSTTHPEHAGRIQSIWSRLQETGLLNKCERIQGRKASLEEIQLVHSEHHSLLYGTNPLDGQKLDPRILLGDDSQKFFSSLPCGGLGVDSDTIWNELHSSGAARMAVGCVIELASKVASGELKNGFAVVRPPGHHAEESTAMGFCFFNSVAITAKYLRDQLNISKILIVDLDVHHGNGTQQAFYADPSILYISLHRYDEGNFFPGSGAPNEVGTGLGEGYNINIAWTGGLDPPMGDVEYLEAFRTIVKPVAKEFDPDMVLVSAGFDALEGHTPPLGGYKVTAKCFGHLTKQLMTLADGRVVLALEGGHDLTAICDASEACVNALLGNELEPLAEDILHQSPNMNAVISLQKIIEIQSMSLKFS

OVCAR-5 = experiment: Cytotoxicity against human OVCAR5 cells; format: functional
[5] = target: T2, Protein deacetylase HDAC6 (Homo sapiens, UniProt Q9UBN7); experiment: Inhibition of HDAC6 (unknown origin); conditions: read-out: IC50
T2 sequence (Q9UBN7 whole entry): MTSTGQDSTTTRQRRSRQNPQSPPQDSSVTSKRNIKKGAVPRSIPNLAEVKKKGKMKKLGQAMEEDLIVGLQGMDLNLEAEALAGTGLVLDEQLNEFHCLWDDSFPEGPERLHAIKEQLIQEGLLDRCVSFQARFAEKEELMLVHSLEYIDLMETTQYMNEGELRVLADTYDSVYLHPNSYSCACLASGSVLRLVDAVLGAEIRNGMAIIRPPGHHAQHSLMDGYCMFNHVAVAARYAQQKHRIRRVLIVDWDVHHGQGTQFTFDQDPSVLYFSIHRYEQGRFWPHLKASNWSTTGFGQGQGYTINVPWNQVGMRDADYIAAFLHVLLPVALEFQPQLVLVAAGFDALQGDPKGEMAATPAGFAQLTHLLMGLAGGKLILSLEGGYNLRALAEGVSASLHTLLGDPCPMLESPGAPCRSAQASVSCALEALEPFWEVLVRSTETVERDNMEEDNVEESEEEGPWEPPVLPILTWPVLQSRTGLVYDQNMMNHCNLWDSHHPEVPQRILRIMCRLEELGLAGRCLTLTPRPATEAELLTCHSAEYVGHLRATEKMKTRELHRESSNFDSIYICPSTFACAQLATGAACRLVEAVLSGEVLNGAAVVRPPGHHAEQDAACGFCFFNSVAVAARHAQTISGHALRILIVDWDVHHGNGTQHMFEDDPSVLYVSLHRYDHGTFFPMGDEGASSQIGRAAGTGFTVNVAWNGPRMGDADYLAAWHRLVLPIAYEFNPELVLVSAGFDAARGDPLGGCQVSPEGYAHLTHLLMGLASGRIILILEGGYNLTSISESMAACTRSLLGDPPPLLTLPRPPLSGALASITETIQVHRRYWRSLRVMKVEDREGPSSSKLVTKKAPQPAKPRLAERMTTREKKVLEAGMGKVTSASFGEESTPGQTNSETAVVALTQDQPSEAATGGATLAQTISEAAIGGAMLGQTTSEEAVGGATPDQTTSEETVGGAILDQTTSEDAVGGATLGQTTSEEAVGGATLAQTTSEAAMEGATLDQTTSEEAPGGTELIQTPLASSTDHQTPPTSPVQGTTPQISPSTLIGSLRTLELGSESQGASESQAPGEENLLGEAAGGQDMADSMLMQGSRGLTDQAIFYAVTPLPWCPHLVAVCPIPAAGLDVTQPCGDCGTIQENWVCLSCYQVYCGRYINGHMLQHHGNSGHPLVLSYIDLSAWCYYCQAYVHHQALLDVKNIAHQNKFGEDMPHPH

U-251 = experiment: Cytotoxicity against human U251 cells; format: functional
SNB-19 = experiment: Cytotoxicity against human SNB19 cells; format: functional
KM12 = experiment: Cytotoxicity against human KM12 cells; format: functional
MDA-MB-435 = experiment: Cytotoxicity against human MDA-MB-435 cells; format: functional
MDA-MB-231 [6] = experiment: Cytotoxicity against human MDA-MB-231 cells assessed as reduction of cell viability at 200 uM after 72 hrs by MTT assay relative to control; format: functional
LOX IMVI = experiment: Cytotoxicity against human LOXIMVI cells; format: functional
NCI-H460 = experiment: Cytotoxicity against human NCI-H460 cells; format: functional
OVCAR-3 = experiment: Cytotoxicity against human OVCAR3 cells; format: functional
PC-3 = experiment: Cytotoxicity against human PC3 cells; format: functional

Question: For `O=C(CCCCCCC(=O)Nc1ccc2c(c1)/C(=C/c1ccc[nH]1)C(=O)N2)NO`, which IC50 (Histone deacetylase 7) is on record?
Answer: The IC50 was “Not Active”.

Question: What about the GI50 (UACC-257) of the same compound?
Answer: Its GI50 is 370 nM.

Question: And the IC50 (MDA-MB-231 [1])?
Answer: Its IC50 is 29000 nM.

Question: What about the IC50 (Histone deacetylase 1) of the same compound?
Answer: The IC50 was 0.00687 nM.

Question: What about the GI50 (HCT-15) of the same compound?
Answer: The GI50 was 4590 nM.

Question: What about the GI50 (MDA-MB-231 [2]) of the same compound?
Answer: The GI50 was 1000 nM.

Question: And the GI50 (HT-29)?
Answer: The GI50 was 612 nM.

Question: And the GI50 (NCI-H226)?
Answer: The GI50 was 2320 nM.

Question: What about the GI50 (SR) of the same compound?
Answer: The GI50 was 296 nM.

Question: What about the IC50 [3] of the same compound?
Answer: Its IC50 is 185 nM.

Question: What about the GI50 [4] of the same compound?
Answer: Its GI50 is 1020 nM.

Question: And the IC50 (Histone deacetylase)?
Answer: Its IC50 is 117 nM.

Question: And the IC50 (Histone deacetylase 9)?
Answer: The IC50 was “Not Active”.

Question: What about the GI50 (OVCAR-5) of the same compound?
Answer: Its GI50 is 1120 nM.

Question: What about the IC50 [5] of the same compound?
Answer: The IC50 was 0.323 nM.

Question: What about the GI50 (U-251) of the same compound?
Answer: The GI50 was 420 nM.

Question: What about the GI50 (SNB-19) of the same compound?
Answer: The GI50 was 644 nM.

Question: What about the GI50 (KM12) of the same compound?
Answer: Its GI50 is 960 nM.

Question: What about the GI50 (MDA-MB-435) of the same compound?
Answer: Its GI50 is 341 nM.

Question: What about the Activity (MDA-MB-231 [6]) of the same compound?
Answer: Its Activity is 30%.

Question: What about the GI50 (LOX IMVI) of the same compound?
Answer: Its GI50 is 565 nM.

Question: And the GI50 (NCI-H460)?
Answer: The GI50 was 2740 nM.

Question: What about the GI50 (OVCAR-3) of the same compound?
Answer: Its GI50 is 3600 nM.

Question: What about the GI50 (PC-3) of the same compound?
Answer: The GI50 was 917 nM.
